Results reported in article PMC6471591, “Preparation of Sesquiterpene Lactone Derivatives: Cytotoxic Activity and Selectivity of Action” (Molecules, 2019).

How the values were obtained:
[1] = test system: HeLa cells; assay: Antiproliferative SRB assay (NCI protocol), 48 h; type: cell-based, human; conditions: splenocyte CC50 versus HeLa GI50
[2] = Cytotoxicity on primary cell culture (propidium iodide, flow cytometry); type: cell-based; conditions: for CC50 at 48 h: Balb/c, mouse
Description: The cytotoxicity of the sesquiterpene lactones and its derivatives was evaluated using mouse splenocytes. […] Cumanin derivatives (4–11) have shown CC50 values and selectivity indexes higher than natural compound 1. […] The incorporation of two triazole groups in cumanin (1) reduced cytotoxicity on normal cells and improved selectivity against tumor cell lines.
In a 96-well plate, spleen cells from Balb/c mouse (1.5 × 10^5) were incubated with different drug dilutions (200, 100, 50, 10, and 5 μg/mL) in RPMI medium containing 10% fetal calf serum. After 48 h of incubation at 37 °C (5% CO2), cells were harvested, washed once with PBS, and stained with 2.5 μg/mL propidium iodide (PI) for 5 min at room temperature. Subsequently, cell death was assessed by flow cytometry using a BD FACSaria II cytometer. Cells incubated only with a drug vehicle were used as a 100% viability control and death percentage was calculated according to the following formula: Death(%)=[1−(%PI^−cells)drug−treated/(%PI^−cells)100% viability control]×100.
Then the concentration capable of causing cell death in 50% of splenocytes (CC50) was determined using a non-linear regression approach.

[3] = test system: A549 cells; assay: Antiproliferative SRB assay (NCI protocol), 48 h; type: cell-based, human; conditions: splenocyte CC50 versus A549 GI50
[4] = test system: HeLa cells; assay: Antiproliferative SRB assay (NCI protocol), 48 h; type: cell-based; conditions: Homo sapiens; HeLa (cervix), SRB, 48 h drug exposure; read-out: 50% growth inhibition (GI50) ± SD, HeLa
Description: (§1) In vitro antiproliferative activity was evaluated using the protocol of the National Cancer Institute (NCI) after 48 h of drug exposure using the sulforhodamine B (SRB) assay. […] We cannot discard that increasing lipophilicity may well result in an increase in cytotoxicity in vitro.
(§2) The following human solid tumor cell lines were used in this study: HBL-100 (breast), HeLa (cervix), SW1573 (non-small cell lung), T-47D (breast), A549 (lung), and WiDr (colon). Cells were maintained in 25 cm^2 culture flasks in RPMI 1640 supplemented with 5% heat-inactivated fetal calf serum and 2 mM L-glutamine in a 37 °C, 5% CO2, 95% humidified air incubator. Exponentially growing cells were trypsinized and resuspended in antibiotic containing medium (100 units penicillin G and 0.1 mg of streptomycin per mL). Single-cell suspensions displaying >97% viability by trypan blue dye exclusion test were subsequently counted. After counting, dilutions were made to give the appropriate cell densities for inoculation onto 96-well microtiter plates. Cells were inoculated in a volume of 100 μL per well at densities of 20,000 (WiDr), 15,000 (T-47D and A549), and 10,000 (HeLa, SW1573, and HBL-100) cells per well, based on their doubling times.
(§3) Chemosensitivity tests were performed using the SRB assay of the NCI with slight modifications. Briefly, pure compounds were initially dissolved in DMSO at 400 times the desired final maximum test concentration. Control cells were exposed to an equivalent concentration of DMSO (0.25% v/v, negative control). Each agent was tested in triplicate at different dilutions in the range 1–100 μM. Drug treatment started on day 1 after plating. Drug incubation periods were 48 h, after which cells were precipitated with 25 μL of ice-cold 50% (w/v) trichloroacetic acid and fixed for 60 min at 4 °C. Then, the SRB assay was performed. Optical density (OD) of each well was measured at 492 nm, using BioTek’s PowerWave XS Absorbance Microplate Reader (Highland Park, Winooski, VT, USA). Values were corrected for background OD from wells containing only culture medium. The percentage growth (PG) was calculated with respect to untreated control cells (C) at each level of drug concentrations based on the difference in OD at the start time (T0) and at the end of drug exposure (T), according to NCI formulas. Therefore, if T is greater than or equal to T0, the calculation is 100 × [(T–T0)/(C–T0)]. If T is lower than T0, denoting cell death, the calculation is 100 × [(T–T0)/(T0)]. The effect is defined as the growth percentage, where 50% growth inhibition (GI50) represents the concentration at which PG is +50. Based on these calculations, a PG value of 0 corresponds to the number of cells present at the beginning of drug exposure, while negative PG values denote net cell death.

[5] = test system: HBL100 cells; assay: Antiproliferative SRB assay (NCI protocol), 48 h; type: cell-based; conditions: Homo sapiens, HBL-100; HBL100 (breast), SRB, 48 h drug exposure; read-out: 50% growth inhibition (GI50) ± SD, HBL100
Description: as §1, §2, §3

[6] = test system: A549 cells; assay: Antiproliferative SRB assay (NCI protocol), 48 h; type: cell-based; conditions: Homo sapiens; A549 (lung), SRB, 48 h drug exposure; read-out: 50% growth inhibition (GI50) ± SD, A549
Description: as §1, §2, §3

[7] = test system: SW1573 cells; assay: Antiproliferative SRB assay (NCI protocol), 48 h; type: cell-based, human; conditions: for GI50: Homo sapiens, SW1573 (non-small cell lung), SRB, 48 h drug exposure, read-out: 50% growth inhibition (GI50) ± SD, SW1573; for Selectivity Index, SW1573: splenocyte CC50 versus SW1573 GI50
Description: as §1, §2, §3

[8] = test system: T47-D cells; assay: Antiproliferative SRB assay (NCI protocol), 48 h; type: cell-based, human; conditions: for GI50: Homo sapiens, T47D, T47-D (breast), SRB, 48 h drug exposure, read-out: 50% growth inhibition (GI50) ± SD, T47-D; for Selectivity Index, T47-D: splenocyte CC50 versus T47-D GI50
Description: as §1, §2, §3

[9] = test system: WiDr cells; assay: Antiproliferative SRB assay (NCI protocol), 48 h; type: cell-based, human; conditions: for GI50: Homo sapiens, WiDr (colon), SRB, 48 h drug exposure, read-out: 50% growth inhibition (GI50) ± SD, WiDr; for Selectivity Index, WiDr: splenocyte CC50 versus WiDr GI50
Description: as §1, §2, §3

[10] = test system: HBL100 cells; assay: Antiproliferative SRB assay (NCI protocol), 48 h; type: cell-based, human; conditions: splenocyte CC50 versus HBL100 GI50
[11] = test system: human solid tumor cell lines (A549, HBL-100, HeLa, SW1573, T-47D, WiDr); assay: Antiproliferative SRB assay, whole panel of tumor cell lines; type: cell-based; conditions: tumor cell line panel, compared to cumanin (1)
Description: as §1, §2, §3

Compound | Selectivity Index, HeLa [1] | CC50 at 48 h [2] [µM] | Selectivity Index, A549 [3] | GI50 [4] [µM] | GI50 [5] [µM] | GI50 [6] [µM] | GI50 [7] [µM] | Selectivity Index, SW1573 [7] | GI50 [8] [µM] | Selectivity Index, T47-D [8] | GI50 [9] [µM] | Selectivity Index, WiDr [9] | Selectivity Index, HBL100 [10] | CC50 ([2]; Balb/c mouse spleen cells, 48 h incubation, PI staining, read-out: CC50 ± SD, splenocytes (concentration that causes 50% cell death)) [µM] | antiproliferative activity in words [11]
C=C1C(=O)O[C@@H]2[C@H]1CC[C@H](C)[C@@]1(O[Si](C)(C)C)C=CC(=O)[C@@]21C [Compound 15] | 0.7 | 2.3 | 0.7 | 3.3 | 4.6 | 3.4 | 2.4 | 0.9 | 4.2 | 0.5 | 6.8 | 0.3 | 0.5 | – | –
C=C1C(=O)O[C@@H]2C[C@@H](C)[C@@H]3C=CC(=O)[C@@]3(C)[C@@H](OC(C)=O)[C@H]12 [Compound 12] | – | – | – | – | 3.6 | – | 4.7 | 0.1 | 1.6 | 0.2 | – | – | 0.1 | 0.4 | –
C=C1C(=O)O[C@@H]2[C@H]1CC[C@H](C)[C@@]1(O)C=CC(=O)[C@@]21C [Compound 3, hymenin] | 0.3 | 4.4 | 0.4 | 14 | 17 | 9.7 | 6.4 | 0.7 | 20 | 0.2 | 18 | 0.2 | 0.3 | – | –
C=C1C(=O)O[C@@H]2C[C@H](C)[C@@H]3C[C@H](O[Si](C)(C)C(C)C)[C@H](O[Si](C)(C)C(C)C)[C@@]3(C)C[C@H]12 [Compound 6] | 70.6 | 91.8 | 76.5 | 1.3 | 2.3 | 1.2 | 1.2 | 76.5 | 2.2 | 41.7 | 2.4 | 38.2 | 39.9 | – | –
C#CCOC1CC2C(C)CC3OC(=O)C(=C)C3CC2(C)C1O (centres unmarked) [Compound 8] | 9.5 | – | 10.0 | 19 | 17 | 18 | 28 | 6.4 | 24 | 7.5 | 7.2 | 25.1 | 10.6 | – | moderate activity
